Assay results from US20190216761A1, “COMPOSITIONS COMPRISING 15-HEPE AND METHODS OF USING THE SAME” (Afimmune Limited, priority 2015, published 2019).
Residue numbers refer to the chain shown, from its start. Marks after values point to notes of the source that are not given here.

Experiments:
hPPARα = molecular target: T1, hPPARα (Homo sapiens, UniProt Q07869); experiment: PPAR agonist reporter assay (Gal4 hybrid receptor, luciferase); assay type: cell-based
T1 construct: expressed in transfected cells
T1 sequence (Q07869 239-466 limits assumed): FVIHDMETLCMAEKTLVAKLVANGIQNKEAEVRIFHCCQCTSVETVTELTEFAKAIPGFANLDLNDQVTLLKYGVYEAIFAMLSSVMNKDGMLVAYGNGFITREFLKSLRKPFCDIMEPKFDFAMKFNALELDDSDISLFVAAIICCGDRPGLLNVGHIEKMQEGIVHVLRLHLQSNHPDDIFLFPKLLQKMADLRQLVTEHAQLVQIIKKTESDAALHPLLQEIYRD
Procedure: (§1) This study utilized proprietary reporter cells expressing a hybrid receptor comprising the N-terminal Gal4 DNA binding domain fused to the ligand binding domain of the specific human nuclear receptor (hPPARα, hPPARδ, and hPPARγ) and rat nuclear receptor (rPPARα, rPPARδ, and rPPARγ). The reporter vectors used in this Example comprise the firefly luciferase gene functionally linked to the Gal4 upstream activation sequence.
(§2) Nuclear Receptor assay was performed by dispensing 100 μL of a suspension of Reporter Cells in Cell Recovery Medium (CRM) containing 10% charcoal stripped FBS into each well of a white 96-well plate. Test compounds were diluted using compound screening medium (CSM) containing 10% charcoal stripped FBS to generate “2×-concentration” treatment media. Immediately after this dilution step, 100 μL of each diluted 2×-concentration treatment medium was dispensed (in triplicate) into the Reporter Cell-containing assay wells.
(§3) After incubation at 37° C. for 24 hours, the treatment media was discarded. 100 μL of Luciferase Detection Reagent substrate was added to each well and RLUs were quantified from each well to determine nuclear receptor activities.

rPPARγ [1] = molecular target: T2, rPPARγ (Rattus norvegicus, UniProt O88275); experiment: as above; assay type: cell-based
T2 construct: expressed in transfected cells
T2 sequence (O88275 238-503 limits assumed): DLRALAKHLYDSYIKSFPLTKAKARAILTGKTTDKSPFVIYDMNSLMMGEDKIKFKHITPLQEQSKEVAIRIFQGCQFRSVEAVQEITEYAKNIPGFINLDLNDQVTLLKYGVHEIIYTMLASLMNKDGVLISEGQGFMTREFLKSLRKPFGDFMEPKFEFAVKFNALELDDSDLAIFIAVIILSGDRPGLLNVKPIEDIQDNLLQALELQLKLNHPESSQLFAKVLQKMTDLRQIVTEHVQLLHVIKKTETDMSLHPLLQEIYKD
Procedure: as §1, §2, §3

rPPARα = molecular target: T3, rPPARα (Rattus norvegicus, UniProt P37230); experiment: as above; assay type: cell-based
T3 construct: expressed in transfected cells
T3 sequence (P37230 239-466 limits assumed): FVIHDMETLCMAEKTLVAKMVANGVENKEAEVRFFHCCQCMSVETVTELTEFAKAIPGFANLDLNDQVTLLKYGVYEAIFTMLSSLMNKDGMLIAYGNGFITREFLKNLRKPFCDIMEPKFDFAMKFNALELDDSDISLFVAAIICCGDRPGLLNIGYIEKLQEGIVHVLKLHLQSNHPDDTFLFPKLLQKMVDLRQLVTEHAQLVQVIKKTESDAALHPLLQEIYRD
Procedure: as §1, §2, §3

hPPARγ = molecular target: T4, hPPARγ (Homo sapiens, UniProt P37231); experiment: PPAR antagonist reporter assay (reference agonist at EC80); assay type: cell-based
T4 construct: expressed in transfected cells
T4 sequence (P37231 238-503 limits assumed): T2 sequence (O88275 238-503 limits assumed) with N93S, I98V, V226L, H245Q
Procedure: as §1
(§4) Nuclear Receptor assay was performed by suspending Reporter Cells in CRM containing 10% charcoal stripped FBS. 2×-EC80 concentrations of the appropriate reference agonist were then added to the Reporter Cell suspension, and 100 μL of the mixture dispensed into wells of a white 96-well plate. Test compounds were diluted using compound screening medium (CSM) containing 10% charcoal stripped FBS to generate “2×-concentration” treatment media. Immediately after this dilution step, 100 μL of each diluted 2×-concentration treatment medium was dispensed (in triplicate) into the Reporter Cell-containing assay wells.
(§5) After incubation at 37° C. for 24 hours, the treatment media was discarded. Each well was rinsed once with LCM Buffer; LCM substrate was then added. After incubation for 30 minutes at 37° C., fluorescence was measured to determine the relative number of live cells per assay well. LCM substrate was then discarded and 100 μL of Luciferase Detection Reagent substrate was added to each well. RLUs were quantified from each well to determine nuclear receptor activities.

rPPARγ [2] = molecular target: T2, rPPARγ; experiment: as above; assay type: cell-based
Procedure: as §1, §4, §5

rPPARδ = experiment: as above; assay type: cell-based, rat
Procedure: as §1, §4, §5

Structure (SMILES): CC/C=C\C/C=C\C/C=C\C/C=C\C/C=C\CCCC(=O)OCC [EPA-EE, EPA ethyl ester, reference compound]
- Fold-Activation (vs. 0.10% DMSO) hPPAR-α (hPPARα; 137 nM): 0.88 fold
- Fold-Activation (vs. 0.10% DMSO) hPPAR-α (hPPARα; 412 nM): 1.0 fold
- Fold-Activation (vs. 0.10% DMSO) hPPAR-α (hPPARα; 1,235 nM): 0.90 fold
- Fold-Activation (vs. 0.10% DMSO) hPPAR-α (hPPARα; 3,704 nM): 0.89 fold
- Fold-Activation (vs. 0.10% DMSO) hPPAR-α (hPPARα; 11,111 nM): 0.86 fold
- Fold-Activation (vs. 0.10% DMSO) hPPAR-α (hPPARα; 33,333 nM): 0.95 fold
- Fold-Activation (vs. 0.10% DMSO) hPPAR-α (hPPARα; 100,000 nM): 1.1 fold
- Fold-Activation (vs. 0.10% DMSO) hPPAR-α (hPPARα; 300,000 nM): 2.0* fold
- Fold-Activation (vs. 0.10% DMSO) rPPAR-γ (rPPARγ [1]; 137 nM): 0.90 fold
- Fold-Activation (vs. 0.10% DMSO) rPPAR-γ (rPPARγ [1]; 412 nM): 0.94 fold
- Fold-Activation (vs. 0.10% DMSO) rPPAR-γ (rPPARγ [1]; 1,235 nM): 0.99 fold
- Fold-Activation (vs. 0.10% DMSO) rPPAR-γ (rPPARγ [1]; 3,704 nM): 0.97 fold
- Fold-Activation (vs. 0.10% DMSO) rPPAR-γ (rPPARγ [1]; 11,111 nM): 0.97 fold
- Fold-Activation (vs. 0.10% DMSO) rPPAR-γ (rPPARγ [1]; 33,333 nM): 0.99 fold
- Fold-Activation (vs. 0.10% DMSO) rPPAR-γ (rPPARγ [1]; 100,000 nM): 1.0 fold
- Fold-Activation (vs. 0.10% DMSO) rPPAR-γ (rPPARγ [1]; 300,000 nM): 2.1* fold
- Fold-Activation (vs. 0.10% DMSO) rPPAR-α (rPPARα; 137 nM): 1.3 fold
- Fold-Activation (vs. 0.10% DMSO) rPPAR-α (rPPARα; 412 nM): 1.3 fold
- Fold-Activation (vs. 0.10% DMSO) rPPAR-α (rPPARα; 1,235 nM): 1.3 fold
- Fold-Activation (vs. 0.10% DMSO) rPPAR-α (rPPARα; 3,704 nM): 1.3 fold
- Fold-Activation (vs. 0.10% DMSO) rPPAR-α (rPPARα; 11,111 nM): 1.4 fold
- Fold-Activation (vs. 0.10% DMSO) rPPAR-α (rPPARα; 33,333 nM): 1.3 fold
- Fold-Activation (vs. 0.10% DMSO) rPPAR-α (rPPARα; 100,000 nM): 1.3 fold
- Fold-Activation (vs. 0.10% DMSO) rPPAR-α (rPPARα; 300,000 nM): 1.5 fold
- % Inhibition of agonist-stimulated receptor activity vs. 0.10% DMSO, hPPAR-γ (hPPARγ; 137 nM): 13%
- % Inhibition of agonist-stimulated receptor activity vs. 0.10% DMSO, hPPAR-γ (hPPARγ; 412 nM): 3.8%
- % Inhibition of agonist-stimulated receptor activity vs. 0.10% DMSO, hPPAR-γ (hPPARγ; 1,235 nM): −8.0%
- % Inhibition of agonist-stimulated receptor activity vs. 0.10% DMSO, hPPAR-γ (hPPARγ; 3,704 nM): −11%
- % Inhibition of agonist-stimulated receptor activity vs. 0.10% DMSO, hPPAR-γ (hPPARγ; 11,111 nM): −8.4%
- % Inhibition of agonist-stimulated receptor activity vs. 0.10% DMSO, hPPAR-γ (hPPARγ; 33,333 nM): 2.9%
- % Inhibition of agonist-stimulated receptor activity vs. 0.10% DMSO, hPPAR-γ (hPPARγ; 100,000 nM): −0.59%
- % Inhibition of agonist-stimulated receptor activity vs. 0.10% DMSO, hPPAR-γ (hPPARγ; 300,000 nM): 30%
- inhibition of human PPARs (in words), hPPARγ (hPPARγ; at higher test concentrations): does not exhibit similar inhibitory activity
- % Inhibition of agonist-stimulated receptor activity vs. 0.10% DMSO, rPPAR-γ (rPPARγ [2]; 137 nM): 9.6%
- % Inhibition of agonist-stimulated receptor activity vs. 0.10% DMSO, rPPAR-γ (rPPARγ [2]; 412 nM): −7.4%
- % Inhibition of agonist-stimulated receptor activity vs. 0.10% DMSO, rPPAR-γ (rPPARγ [2]; 1,235 nM): −7.3%
- % Inhibition of agonist-stimulated receptor activity vs. 0.10% DMSO, rPPAR-γ (rPPARγ [2]; 3,704 nM): −0.55%
- % Inhibition of agonist-stimulated receptor activity vs. 0.10% DMSO, rPPAR-γ (rPPARγ [2]; 11,111 nM): 2.8%
- % Inhibition of agonist-stimulated receptor activity vs. 0.10% DMSO, rPPAR-γ (rPPARγ [2]; 33,333 nM): 5.0%
- % Inhibition of agonist-stimulated receptor activity vs. 0.10% DMSO, rPPAR-γ (rPPARγ [2]; 100,000 nM): 6.2%
- % Inhibition of agonist-stimulated receptor activity vs. 0.10% DMSO, rPPAR-γ (rPPARγ [2]; 300,000 nM): 7.0%
- inhibition of rat PPARs (in words), rPPARγ (rPPARγ [2]; at higher test concentrations): does not exhibit similar inhibitory activity
- % Inhibition of agonist-stimulated receptor activity vs. 0.10% DMSO, rPPAR-δ (rPPARδ; 137 nM): 26%
- % Inhibition of agonist-stimulated receptor activity vs. 0.10% DMSO, rPPAR-δ (rPPARδ; 412 nM): 4.0%
- % Inhibition of agonist-stimulated receptor activity vs. 0.10% DMSO, rPPAR-δ (rPPARδ; 1,235 nM): 5.7%
- % Inhibition of agonist-stimulated receptor activity vs. 0.10% DMSO, rPPAR-δ (rPPARδ; 3,704 nM): 8.1%
- % Inhibition of agonist-stimulated receptor activity vs. 0.10% DMSO, rPPAR-δ (rPPARδ; 11,111 nM): 3.7%
- % Inhibition of agonist-stimulated receptor activity vs. 0.10% DMSO, rPPAR-δ (rPPARδ; 33,333 nM): 7.2%
- % Inhibition of agonist-stimulated receptor activity vs. 0.10% DMSO, rPPAR-δ (rPPARδ; 100,000 nM): 10%
- % Inhibition of agonist-stimulated receptor activity vs. 0.10% DMSO, rPPAR-δ (rPPARδ; 300,000 nM): 36%
- inhibition of rat PPARs (in words), rPPARδ (rPPARδ; at higher test concentrations): does not exhibit similar inhibitory activity
